# US10174016B2 (BAYER AKTIENGESELLSCHAFT, priority 2014, dated 2019)
# Read-outs that look alike come from different tables or passages of the source.
# What was measured:
# human P2X2/3 receptor = human P2X2/3 receptor (Homo sapiens (Human), UniProt P56373+Q9UBL9); assay: Intracellular calcium measurement (FLIPR, Fluo-4) of antagonist activity at human P2X2/3 receptors; assay type: cell-based; details: human P2X2/3, FLIPR calcium assay, agonist α,β-Me-ATP; read-out: hP2X2/3 IC50
# Procedure, shortened: (§1)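 Antagonism quantified from peak calcium fluorescence (Fluo-4, FLIPR, 90 sec read) evoked by EC80 α,β-Me-ATP, after a 30 min, 37° C. compound pretreatment in 1% DMSO. Human P2X3- or P2X2/3-expressing cells used; triplicate means fitted for IC50, percent maximal inhibition and Hill coefficient.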
# human P2X3 receptor = human P2X3 receptor (Homo sapiens (Human), UniProt P56373); assay: Intracellular calcium measurement (FLIPR, Fluo-4) of antagonist activity at human P2X3 receptors; assay type: cell-based; details: read-out: hP2X3 IC50
# Chain of human P2X3 receptor (P56373 whole entry): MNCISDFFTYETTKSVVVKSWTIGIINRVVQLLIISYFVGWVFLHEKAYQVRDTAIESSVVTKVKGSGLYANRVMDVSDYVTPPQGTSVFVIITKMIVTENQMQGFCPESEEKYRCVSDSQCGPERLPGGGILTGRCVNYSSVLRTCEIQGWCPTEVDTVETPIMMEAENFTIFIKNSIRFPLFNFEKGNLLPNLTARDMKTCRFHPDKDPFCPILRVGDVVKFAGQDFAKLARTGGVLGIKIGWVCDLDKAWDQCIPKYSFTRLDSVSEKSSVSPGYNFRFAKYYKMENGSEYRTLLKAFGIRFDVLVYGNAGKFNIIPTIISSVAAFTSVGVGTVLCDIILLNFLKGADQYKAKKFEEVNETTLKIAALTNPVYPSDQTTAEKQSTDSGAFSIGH
# Procedure, shortened: as §1
# [1] = human P2X3, FLIPR calcium assay, agonist α,β-Me-ATP
# Chain of human P2X2/3 receptor (P56373 whole entry): as above
# Chain of human P2X2/3 receptor (Q9UBL9 whole entry): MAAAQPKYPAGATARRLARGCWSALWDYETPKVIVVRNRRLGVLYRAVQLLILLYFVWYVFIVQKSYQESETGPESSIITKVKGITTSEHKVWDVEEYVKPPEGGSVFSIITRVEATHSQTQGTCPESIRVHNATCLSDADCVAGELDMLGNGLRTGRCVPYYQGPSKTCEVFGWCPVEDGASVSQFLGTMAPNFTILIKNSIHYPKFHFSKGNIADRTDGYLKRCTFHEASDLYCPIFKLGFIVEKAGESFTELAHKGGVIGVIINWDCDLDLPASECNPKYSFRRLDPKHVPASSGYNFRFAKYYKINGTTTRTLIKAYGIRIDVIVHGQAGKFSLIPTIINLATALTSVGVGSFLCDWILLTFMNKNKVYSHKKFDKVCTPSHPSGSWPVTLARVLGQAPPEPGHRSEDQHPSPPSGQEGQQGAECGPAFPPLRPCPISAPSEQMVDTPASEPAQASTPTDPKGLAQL
SMILES,IC50 (human P2X2/3 receptor) [nM],IC50 (human P2X3 receptor; [1]) [nM],IC50 (human P2X3 receptor) [nM]
"Cc1cnc(-c2cc(OC[C@H]3COCC(=O)N3)cc(C(=O)N[C@H](C)c3cnc(C(F)(F)F)nc3)c2)s1 [Example 396, 3-(5-methyl-1,3-thiazol-2-yl)-5-{[(3R)-5-oxomorpholin-3-yl]methoxy}-N-{(1R)-1-[2-(trifluoromethyl)pyrimidin-5-yl]ethyl}benzamide]",1800,22,–
"Cc1cnc(-c2cc(OC[C@H]3CN(C)C(=O)O3)cc(C(=O)N[C@H](C)c3cnc(C(F)(F)F)nc3)c2)s1 [Example 398, 3-{[(5R)-3-methyl-2-oxo-1,3-oxazolidin-5-yl]methoxy}-5-(5-methyl-1,3-thiazol-2-yl)-N-{(1R)-1-[2-(trifluoromethyl)pyrimidin-5-yl]ethyl}benzamide]",1800,17,–
"Cc1cnc(-c2cc(OC[C@H]3CN(C)C(=O)CO3)cc(C(=O)N[C@H](C)c3cnc(C(F)(F)F)nc3)c2)s1 [Example 399, 3-{[(2R)-4-methyl-5-oxomorpholin-2-yl]methoxy}-5-(5-methyl-1,3-thiazol-2-yl)-N-{(1R)-1-[2-(trifluoromethyl)pyrimidin-5-yl]ethyl}benzamide]",1720,69,–
"Cc1cnc(-c2cc(OC[C@@H]3CNC(=O)CO3)cc(C(=O)N[C@H](C)c3cnc(C(F)(F)F)nc3)c2)s1 [Example 400, 3-(5-methyl-1,3-thiazol-2-yl)-5-{[(2S)-5-oxomorpholin-2-yl]methoxy}-N-{(1R)-1-[2-(trifluoromethyl)pyrimidin-5-yl]ethyl}benzamide]",1480,59,–
"Cc1cnc(-c2cc(OC[C@@H]3COCC(=O)N3)cc(C(=O)N[C@H](C)c3cnc(C(F)(F)F)nc3)c2)s1 [Example 403, 3-(5-methyl-1,3-thiazol-2-yl)-5-{[(3S)-5-oxomorpholin-3-yl]methoxy}-N-{(1R)-1-[2-(trifluoromethyl)pyrimidin-5-yl]ethyl}benzamide]",2110,–,56
"Cc1cnc(-c2cc(OCC34CC(CO3)N(C(C)C)C4)cc(C(=O)N[C@H](C)c3cnc(C(F)(F)F)nc3)c2)s1 (stereo partly drawn) [Example 405, 3-[(5-isopropyl-2-oxa-5-azabicyclo[2.2.1]hept-1-yl)methoxy]-5-(5-methyl-1,3-thiazol-2-yl)-N-{(1R)-1-[2-(trifluoromethyl)pyrimidin-5-yl]ethyl}benzamide]",1560,17,–
"Cc1cnc(-c2cc(OCC34CC(CO3)N(C)C4)cc(C(=O)N[C@H](C)c3cnc(C(F)(F)F)nc3)c2)s1 (stereo partly drawn) [Example 406, 3-[(5-methyl-2-oxa-5-azabicyclo[2.2.1]hept-1-yl)methoxy]-5-(5-methyl-1,3-thiazol-2-yl)-N-{(1R)-1-[2-(trifluoromethyl)pyrimidin-5-yl]ethyl}benzamide]",2030,26,–
"CCCN1CC2(COc3cc(C(=O)N[C@H](C)c4cnc(C(F)(F)F)nc4)cc(-c4ncc(C)s4)c3)CC1CO2 (stereo partly drawn) [Example 408, 3-(5-methyl-1,3-thiazol-2-yl)-5-[(5-propyl-2-oxa-5-azabicyclo[2.2.1]hept-1-yl)methoxy]-N-{(1R)-1-[2-(trifluoromethyl)pyrimidin-5-yl]ethyl}benzamide]",1710,32,–
"Cc1cnc(-c2cc(OC[C@H]3CNCCO3)cc(C(=O)N[C@@H](C)c3cnc(C(F)(F)F)nc3)c2)s1 [Example 413, 3-(5-methyl-1,3-thiazol-2-yl)-5-[(2R)-morpholin-2-ylmethoxy]-N-{(1S)-1-[2-(trifluoromethyl)pyrimidin-5-yl]ethyl}benzamide]",≥ 10000,597,–
"CCc1cnc(-c2cc(OC[C@@H]3CNCCO3)cc(C(=O)N[C@H](C)c3ccc(C(F)(F)F)nn3)c2)s1 [Example 414, 3-(5-ethyl-1,3-thiazol-2-yl)-5-[(2S)-morpholin-2-ylmethoxy]-N-{(1R)-1-[6-(trifluoromethyl)pyridazin-3-yl]ethyl}benzamide]",2270,29,–

# Continued by falling IC50 (human P2X2/3 receptor), values first:
IC50 (human P2X2/3 receptor) [nM],IC50 (human P2X3 receptor; [1]) [nM],SMILES,IC50 (human P2X3 receptor) [nM]
1470,30,"Cc1cnc(-c2cc(OC[C@@H]3CN(C)C(=O)CO3)cc(C(=O)N[C@H](C)c3cnc(C(F)(F)F)nc3)c2)s1 [Example 401, 3-{[(2S)-4-methyl-5-oxomorpholin-2-yl]methoxy}-5-(5-methyl-1,3-thiazol-2-yl)-N-{(1R)-1-[2-(trifluoromethyl)pyrimidin-5-yl]ethyl}benzamide]",–
1360,15,"Cc1cnc(-c2cc(OC[C@@H]3CN(C)C(=O)O3)cc(C(=O)N[C@H](C)c3cnc(C(F)(F)F)nc3)c2)s1 [Example 397, 3-{[(5S)-3-methyl-2-oxo-1,3-oxazolidin-5-yl]methoxy}-5-(5-methyl-1,3-thiazol-2-yl)-N-{(1R)-1-[2-(trifluoromethyl)pyrimidin-5-yl]ethyl}benzamide]",–
1310,30,"Cc1cnc(-c2cc(OC[C@H]3COCC(=O)N3C)cc(C(=O)N[C@H](C)c3cnc(C(F)(F)F)nc3)c2)s1 [Example 395, 3-{[(3R)-4-methyl-5-oxomorpholin-3-yl]methoxyl}-5-(5-methyl-1,3-thiazol-2-yl)-N-{(1R)-1-[2-(trifluoromethyl)pyrimidin-5-yl]ethyl}benzamide]",–
1250,21,"Cc1cnc(-c2cc(OC[C@@H]3COCC(=O)N3C)cc(C(=O)N[C@H](C)c3cnc(C(F)(F)F)nc3)c2)s1 [Example 402, 3-{[(3S)-4-methyl-5-oxomorpholin-3-yl]methoxy}-5-(5-methyl-1,3-thiazol-2-yl)-N-{(1R)-1-[2-(trifluoromethyl)pyrimidin-5-yl]ethyl}benzamide]",–
976,22,"COC(=O)N1CC2(COc3cc(C(=O)N[C@H](C)c4cnc(C(F)(F)F)nc4)cc(-c4ncc(C)s4)c3)CC1CO2 (stereo partly drawn) [Example 409, Methyl 1-{[3-(5-methyl-1,3-thiazol-2-yl)-5-({(1R)-1-[2-(trifluoromethyl)pyrimidin-5-yl]ethyl}carbamoyl)phenoxy]methyl}-2-oxa-5-azabicyclo[2.2.1]heptane-5-carboxylate]",–
906,22,"CCOC(=O)N1CC2(COc3cc(C(=O)N[C@H](C)c4cnc(C(F)(F)F)nc4)cc(-c4ncc(C)s4)c3)CC1CO2 (stereo partly drawn) [Example 410, Ethyl 1-{[3-(5-methyl-1,3-thiazol-2-yl)-5-({(1R)-1-[2-(trifluoromethyl)pyrimidin-5-yl]ethyl}carbamoyl)phenoxy]methyl}-2-oxa-5-azabicyclo[2.2.1]heptane-5-carboxylate]",–
697,20,"CCN1CCO[C@H](COc2cc(C(=O)N[C@H](C)c3cnc(C(F)(F)F)nc3)cc(-c3ncc(C)s3)c2)C1 [Example 411, 3-{[(2S)-4-ethylmorpholin-2-yl]methoxy}-5-(5-methyl-1,3-thiazol-2-yl)-N-{(1R)-1-[2-(trifluoromethyl)pyrimidin-5-yl]ethyl}benzamide]",–
533,44,"Cc1cnc(-c2cc(OCC34CC(CO3)N(C(=O)OC(C)(C)C)C4)cc(C(=O)N[C@H](C)c3cnc(C(F)(F)F)nc3)c2)s1 (stereo partly drawn) [Example 404, tert-butyl 1-{[3-(5-methyl-1,3-thiazol-2-yl)-5-({(1R)-1-[2-(trifluoromethyl)pyrimidin-5-yl]ethyl}carbamoyl)phenoxy]methyl}-2-oxa-5-azabicyclo[2.2.1]heptane-5-carboxylate]",–
